# Reference: patent publication US9618507B2, “Methods of treating rheumatoid arthritis” (Betanien Hospital, priority 2014, dated 2017)
# Marks after values point to notes of the source that are not given here. Where a SMILES comes first, the peptide text is derived from it. [ ]: non-standard residue; d: D form. dPhe(4-Cl) = N[C@H](Cc1ccc(Cl)cc1)C(=O)O; d2Nal = N[C@H](Cc1ccc2ccccc2c1)C(=O)O; dCit = NC(=O)NCCC[C@@H](N)C(=O)O; d3Pal = N[C@H](Cc1cccnc1)C(=O)O
# What was measured:
# [1] = test system: RA patients with high gonadotropin levels; assay: Example 2: AGRA post hoc analyses in patients with high gonadotropin levels, disease activity (DAS28-CRP, ACR, EULAR); format: in vivo, human
# Excerpt: Post hoc analyses is described herein.
# Key inclusion criteria for AGRA were males or females aged ≧18 years with RA that had been diagnosed on the basis of the American College of Rheumatology (ACR) 1987 revised criteria (Arnett F C, et al., Arthritis Rheum 1988; 31:315-24); with active, and moderate or severe disease defined as a Disease Activity Score for 28-joint counts based on C-reactive protein (Wells G, et al., Ann Rheum Dis 2009; 68:954-60) (DAS28-CRP) >3.2 and at least two of the following criteria: ≧6 painful joints, ≧3 swollen joints, ESR ≧20 mm/h, and a C-reactive protein ≧10 mg/L). Prednisolone ≦7.5 mg/day was permitted if stable for at least 4 weeks prior to baseline; NSAIDs were permitted if stable for at least 2 weeks prior to baseline; and disease-modifying anti-rheumatic drugs (DMARDs) were permitted if stable for at least 8 weeks prior to baseline. Tumour necrosis factor-α (TNF-α) inhibitor or other biological agents were not permitted during the trial or within 4 weeks prior to inclusion. Infliximab/adalimumab was not permitted at least 3 months prior to inclusion; Rituximab was not permitted at least 6 months prior to inclusion. Intramuscular, intra-articular or intravenous corticosteroids; any hormone replacement therapy; or oral contraception was not permitted during the trial or within 4 weeks prior to inclusion.
# In these post hoc analyses, a subgroup of AGRA patients with high gonadotropin levels were examined. There is no established cut-off for high LH and/or FSH. Therefore, levels above the median were defined as high (e.g., LH>17.3 IU/L and FSH>34.6 IU/L).
# The intention-to-treat population was predefined as all randomised patients who received any study-drug injections. Missing values were <1% and could, as predefined, be imputed with the last-observation-carried-forward. The assumptions of normality needed for analyses were approximately valid. All statistical tests were two-sided (α=0.05) and performed with Stata 12 and StatXact 9. Analyses were performed by an offsite statistician who received locked databases from blinded investigators and laboratories, and the allocation key from the offsite central office.
# [2] = test system: myeloma cells; conditions: Wen J, et al., Mol Cancer Ther 2011; cited from earlier work
# [3] = test system: interleukin-2; assay: Example 2: serum cytokine, multiplex high-sensitivity assay, interleukin-2; format: in vivo, human; conditions: high gonadotropin patients
# Method: (§1) The protocol-specified primary and secondary intention-to-treat endpoints of the original AGRA trial were analyzed in these post hoc analyses. The primary endpoint was the baseline-adjusted between-group difference in DAS28-CRP (Wells et al., supra) by day 5b. Secondary endpoints included the baseline-adjusted between-group difference in cytokines, proportions of patients achieving at least a 20%, 50%, and 70% improvement on the ACR scale (Felson D T, et al., Arthritis Rheum 1995; 38:727-35), categorical DAS28-CRP (European League Against […] [EULAR]) responses (Wells et al., supra; van Gestel A M, et al., Arthritis Rheum 1996; 39:34-40), DAS28-CRP≦3.2 (Wells et al., supra), DAS28-CRP<2.6 (Wells et al., supra), and the incidence of adverse events. Protocol-specified DAS28 outcomes were preferentially CRP-based rather than erythrocyte sedimentation rate (ESR)-based, as CRP usually changes before ESR. […] Multiplex technology (Luminex Inc., Austin, Tex.) measured these serum cytokines using high-sensitivity assays (sensitivities <0.5 pg/mL, allowing the detection of very low concentrations of cytokines) and identical lots of critical reagent of negligible cross-reactivity <2%, according to manufacturers' instructions (Bio-Rad, Hercules, Calif.). […] To enable intention-to-treat analyses with all patients N=53, non-detectable values were set at the lower limit of detection for cytokines, as is common for CRP values.
# (§2) The original power calculation is previously reported (Kass A S, et al., Scand J Rheumatol Epub ahead of print 1 Nov. 2013). Baseline-adjusted between-group differences for all continuous endpoints were assessed with the use of analysis-of-covariance using outcome measurements at predefined time points as response variables, and treatment and baseline measurements as covariates. Dichotomous endpoints were compared with the Pearson chi-square test or Suissa-Shuster exact unconditional test, depending on expected-value distribution (Lydersen S, et al., Stat Med 2009; 28:1159-75). No adjustments for multiple analyses were made, owing to highly correlated endpoints. Due to skewed distributions, between-group changes of natural log-transformed cytokine levels from baseline were compared.
# [4] = test system: interleukin-1β; assay: Example 2: serum cytokine, multiplex high-sensitivity assay, interleukin-1β; format: in vivo, human; conditions: high gonadotropin patients
# Method: as §1, §2
# [5] = test system: interleukin-10; assay: Example 2: serum cytokine, multiplex high-sensitivity assay, interleukin-10; format: in vivo, human; conditions: high gonadotropin patients
# Method: as §1, §2
# [6] = high gonadotropin patients, by day 5, placebo 0%
smiles,measurement,setting,value
CC(=O)N[C@H](Cc1ccc2ccccc2c1)C(=O)N[C@H](Cc1ccc(Cl)cc1)C(=O)N[C@H](Cc1cccnc1)C(=O)N[C@@H](CO)C(=O)N[C@@H](Cc1ccc(O)cc1)C(=O)N[C@H](CCCNC(N)=O)C(=O)N[C@@H](CC(C)C)C(=O)N[C@@H](CCCNC(=N)N)C(=O)N1CCC[C@H]1C(=O)N[C@H](C)C(N)=O [cetrorelix] (Ac-[d2Nal][dPhe(4-Cl)][d3Pal]SY[dCit]LRP[dA]-NH2),"reductions of DAS28-CRP and cytokines compared to placebo, high gonadotropin groups (N=53) versus the rest of the AGRA population (N=46)",[1]; FIG. 5B-E,greater reductions
same,patients achieving DAS28-CRP<2.6,[1]; [6],15%
same,patients achieving DAS28-CRP≦3.2,[1]; [6],22%
same,patients achieving EULAR 'Good-Responses',[1]; [6],19%
same,patients achieving ACR20 responses,"[1]; high gonadotropin patients, by day 5, placebo 19%",44%
same,DAS28-CRP change by day 5,"[1]; high gonadotropin patients, cetrorelix N=27, 95% CI −1.3 to −0.67, placebo −0.40",−1.0
same,DAS28-CRP baseline-adjusted between-group difference,"[1]; high gonadotropin patients, day 5, 95% CI 0.13 to 0.93, P=0.010",0.53
same,ACR50 and ACR70 responses compared with placebo,"[1]; high gonadotropin patients, numbers too small for valid conclusions",More patients reached ACR50 and ACR70 responses
same,"DAS28-CRP reduction, prednisolone users (N=13) vs non-users (N=14)","[1]; patients who received cetrorelix, P=0.73",similar
same,pro-inflammatory cytokine gene expression through GnRH receptors,[2],directly decrease
same,"IL-2 level, Final Day 15","[3]; N = 27, mean ± SD",−3.39 ± 2.9 log pg/mL
same,IL-2 Change from baseline by day 15,"[3]; N = 27, placebo +0.02",−0.42 log pg/mL
same,interleukin-2 change compared with placebo,"[3]; by day 15, P=0.088",decreased non-significantly
same,IL-2 Baseline-Adjusted Between-Group Difference,"[3]; day 15, 95% CI (−1.09, 0.08)",-0.51 log pg/mL
same,"IL-1β level, Final Day 15","[4]; N = 27, mean ± SD",−1.68 ± 1.4 log pg/mL
same,IL-1β Change from baseline by day 15,"[4]; N = 27, placebo +0.10",−0.20 log pg/mL
same,Interleukin-1β change compared with placebo,"[4]; by day 15, P=0.034",significantly decreased
same,IL-1β Baseline-Adjusted Between-Group Difference,"[4]; day 15, 95% CI (0.02, 0.59), P < 0.05",0.30‡ log pg/mL
same,"IL-10 level, Final Day 15","[5]; N = 27, mean ± SD",−0.31 ± 2.1 log pg/mL
same,IL-10 Change from baseline by day 15,"[5]; N = 27, placebo +0.13",−0.40 log pg/mL
same,interleukin-10 change compared with placebo,"[5]; by day 15, P=0.020",significantly decreased
same,IL-10 Baseline-Adjusted Between-Group Difference,"[5]; day 15, 95% CI (0.10, 1.08), P < 0.05",0.59‡ log pg/mL
